Test results from US20140011814A1, “DIAMINE AND MEGLUMINE SALT FORMS OF FATTY ACIDS” (THETIS PHARMACEUTICALS LLC, priority 2012, published 2014).

Assay: Rat oral pharmacokinetics (plasma analyzed for eicosapentaenoic acid)
Conditions: analyte EPA in plasma, oral gavage 40 mg/kg as aqueous solution in 0.5% carboxymethyl cellulose, Sprague-Dawley rats, mean of 6 rats; for AUC (0-24): 0-24 h

SMILES | AUC (0-24) | Cmax | Tmax
CC/C=C\C/C=C\C/C=C\C/C=C\C/C=C\CCCC(=O)O.CC/C=C\C/C=C\C/C=C\C/C=C\C/C=C\CCCC(=O)O.NCCN [Ethylene diamine di-eicosapentaenoate, Ethane-1,2-diaminium di[5Z,8Z,11Z,14Z,17Z)-icosa-5,8,11,14,17-pentaenoate]] | 275.29 µg·h/mL | 18.37 µg/mL | 2.0 h
C1CNCCN1.CC/C=C\C/C=C\C/C=C\C/C=C\C/C=C\CCCC(=O)O.CC/C=C\C/C=C\C/C=C\C/C=C\C/C=C\CCCC(=O)O [Piperazine di-eicosapentaenoate, Bis[5Z,8Z,11Z,14Z,17Z)-icosa-5,8,11,14,17-pentaenoate]piperazine salt] | 134.85 µg·h/mL | 28.22 µg/mL | 1.0 h
